Data published in patent publication US9302999B2, “Substituted triazoles as herbicides” (E. I. DU PONT DE NEMOURS AND COMPANY, priority 2012, dated 2016).

How the values were obtained:
Format in all cases: in vivo
[1] = tested on: foxtail, giant (giant foxtail, Setaria faberii); assay: Test A pre-/postemergence: foxtail, giant; details: for Foxtail, Giant plant response rating: visual rating on 0 to 100 scale (0 no effect, 100 complete control), approximately ten days
Method in brief: (§1)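 Each species received preemergence soil-directed spraying and, at the same time, postemergence treatment of seedlings 2–10 cm tall. Formulation: non-phytotoxic solvent mixture including surfactant. Response assessed visually about ten days on, relative to untreated controls, 0–100 scale.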

[2] = tested on: ducksalad (Heteranthera limosa); assay: Test B flooded paddy: ducksalad; details: Flood; 250 g ai/ha; applied to paddy water at 2-leaf stage; visually evaluated after 13 to 15 days
Method in brief: (§2)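 Each compound is applied to the floodwater of pots holding 2-leaf seedlings, water standing 3 cm over the soil throughout. Plants stay in a greenhouse 13 to 15 days before visual scoring against controls from 0 (no effect) to 100 (complete control).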

[3] = tested on: pigweed (Amaranthus retroflexus); assay: Test A pre-/postemergence: pigweed; details: for Pigweed plant response rating: visual rating on 0 to 100 scale (0 no effect, 100 complete control), approximately ten days
Method in brief: as §1

corn (Zea mays) = assay: Test A pre-/postemergence: corn; details: for Corn plant response rating: visual rating on 0 to 100 scale (0 no effect, 100 complete control), approximately ten days
Method in brief: as §1

rice (Oryza sativa) = assay: Test B flooded paddy: rice; details: Flood; 250 g ai/ha; applied to paddy water at 2-leaf stage; visually evaluated after 13 to 15 days
Method in brief: as §2

[4] = tested on: barnyardgrass (Echinochloa crus-galli); assay: Test B flooded paddy: barnyardgrass; details: Flood; 250 g ai/ha; applied to paddy water at 2-leaf stage; visually evaluated after 13 to 15 days
Method in brief: as §2

[5] = tested on: wheat (Triticum aestivum); assay: Test A pre-/postemergence: wheat; details: for Wheat plant response rating: visual rating on 0 to 100 scale (0 no effect, 100 complete control), approximately ten days
Method in brief: as §1

[6] = tested on: velvetleaf (Abutilon theophrasti); assay: Test A pre-/postemergence: velvetleaf; details: for Velvetleaf plant response rating: visual rating on 0 to 100 scale (0 no effect, 100 complete control), approximately ten days
Method in brief: as §1

[7] = tested on: morningglory (Ipomoea spp.); assay: Test A pre-/postemergence: morningglory; details: for Morningglory plant response rating: visual rating on 0 to 100 scale (0 no effect, 100 complete control), approximately ten days
Method in brief: as §1

[8] = tested on: sedge, umbrella (small-flower umbrella sedge Cyperus difformis); assay: Test B flooded paddy: sedge, umbrella; details: Flood; 250 g ai/ha; applied to paddy water at 2-leaf stage; visually evaluated after 13 to 15 days
Method in brief: as §2

[9] = tested on: barnyardgrass (Echinochloa crus-galli); assay: Test A pre-/postemergence: barnyardgrass; details: for Barnyardgrass plant response rating: visual rating on 0 to 100 scale (0 no effect, 100 complete control), approximately ten days
Method in brief: as §1

[10] = tested on: crabgrass, large (large crabgrass, Digitaria sanguinalis); assay: Test A pre-/postemergence: crabgrass, large; details: for Crabgrass, Large plant response rating: visual rating on 0 to 100 scale (0 no effect, 100 complete control), approximately ten days
Method in brief: as §1

[11] = Postemergence, 125 g ai/ha, 0 to 100 scale, 0 is no effect, 100 is complete control
[12] = Preemergence, 125 g ai/ha, 0 to 100 scale where 0 is no effect and 100 is complete control
[13] = Preemergence, 500 g ai/ha, 0 to 100 scale (0 no effect, 100 complete control)

Row | SMILES | Plant response rating, Foxtail, Giant [1, 11] | Foxtail, Giant plant response rating ([1]; Postemergence, 500 g ai/ha) | Plant response rating, Foxtail, Giant [1, 12] | Plant response rating, Foxtail, Giant [1, 13] | Plant response rating, Ducksalad (0 to 100 scale, 0 is no effect, 100 is complete control) [2] | Plant response rating, Pigweed [3, 11] | Pigweed plant response rating ([3]; Postemergence, 500 g ai/ha) | Plant response rating, Pigweed [3, 12] | Plant response rating, Pigweed [3, 13] | Plant response rating, Corn (corn (Zea mays); [11]) | Corn plant response rating (corn (Zea mays); Postemergence, 500 g ai/ha) | Plant response rating, Corn (corn (Zea mays); [12]) | Plant response rating, Corn (corn (Zea mays); [13]) | Plant response rating, Rice (0 to 100 scale, 0 is no effect, 100 is complete control) (rice (Oryza sativa)) | Plant response rating, Barnyardgrass (0 to 100 scale, 0 is no effect, 100 is complete control) [4] | Plant response rating, Wheat [5, 11] | Wheat plant response rating ([5]; Postemergence, 500 g ai/ha) | Plant response rating, Wheat [5, 12] | Plant response rating, Wheat [5, 13] | Plant response rating, Velvetleaf [6, 11] | further results
1 | Fc1ccc(-n2nc(F)c(Cc3ccnc(C(F)(F)F)c3)n2)cc1 [Compound 159] | 40 | 90 | 40 | 90 | 20 | 90 | 100 | 70 | 90 | 20 | 30 | 0 | 0 | 30 | 30 | 0 | 30 | 0 | 0 | 20 | Velvetleaf plant response rating ([6]; Postemergence, 500 g ai/ha): 60; Plant response rating, Velvetleaf [6, 12]: 0; Plant response rating, Velvetleaf [6, 13]: 0; Plant response rating, Morningglory [7, 11]: 60; Morningglory plant response rating ([7]; Postemergence, 500 g ai/ha): 90; Plant response rating, Morningglory [7, 12]: 0; Plant response rating, Morningglory [7, 13]: 0; Plant response rating, Sedge, Umbrella (0 to 100 scale, 0 is no effect, 100 is complete control) [8]: 60; Plant response rating, Barnyardgrass [9, 11]: 50; Barnyardgrass plant response rating ([9]; Postemergence, 500 g ai/ha): 80; Plant response rating, Barnyardgrass [9, 12]: 10; Plant response rating, Barnyardgrass [9, 13]: 80; Plant response rating, Crabgrass, Large [10, 11]: 20; Crabgrass, Large plant response rating ([10]; Postemergence, 500 g ai/ha): 40; Plant response rating, Crabgrass, Large [10, 12]: 10; Plant response rating, Crabgrass, Large [10, 13]: 30
2 | CC(C)c1nn(-c2ccc(F)cc2)nc1Cc1ccnc(C(F)(F)F)c1 [Compound 151] | 10 | 30 | 0 | 20 | 0 | 60 | 80 | 10 | 60 | 10 | 20 | 0 | 0 | 30 | 0 | 0 | 0 | 0 | 0 | 30 | Velvetleaf plant response rating ([6]; Postemergence, 500 g ai/ha): 50; Plant response rating, Velvetleaf [6, 12]: 0; Plant response rating, Velvetleaf [6, 13]: 0; Plant response rating, Morningglory [7, 11]: 40; Morningglory plant response rating ([7]; Postemergence, 500 g ai/ha): 70; Plant response rating, Morningglory [7, 12]: 0; Plant response rating, Morningglory [7, 13]: 0; Plant response rating, Sedge, Umbrella (0 to 100 scale, 0 is no effect, 100 is complete control) [8]: 0; Plant response rating, Barnyardgrass [9, 11]: 10; Barnyardgrass plant response rating ([9]; Postemergence, 500 g ai/ha): 20; Plant response rating, Barnyardgrass [9, 12]: 0; Plant response rating, Barnyardgrass [9, 13]: 0; Plant response rating, Crabgrass, Large [10, 11]: 10; Crabgrass, Large plant response rating ([10]; Postemergence, 500 g ai/ha): 30; Plant response rating, Crabgrass, Large [10, 12]: 0; Plant response rating, Crabgrass, Large [10, 13]: 10
